Data from the supplement of paper PMC10307832.

Experiments:
Assay in all cases: relative viability (nuclei count vs DMSO), 5 days (fraction); higher = more cells survive
[1] = compound: CCN1CCC(CC1)N2C=C(N=N2)CNC3=CC4=C(C(=CN=C4C(=C3)Cl)C#N)NC5=CC(=C(C=C5)F)Cl [KIN001-266] + Cc1cc(Nc2cc(N3CCN(C)CC3)nc(Sc3ccc(NC(=O)C4CC4)cc3)n2)n[nH]1 [Tozasertib] (partner 0.1 µM)
Procedure, shortened: (§1)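 Dosing by pin tool came one day after lung cancer cell lines were seeded in 1536-well plates, using either one drug or a fixed anchor-drug dose plus five library-drug doses (not always all listed) in √10 steps. After 5 days, nuclei were counted on 4× images. Relative viability is treated-well nuclei count divided by vehicle-well nuclei count, and values are medians of duplicate plates.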

[2] = compound: CCN1CCC(CC1)N2C=C(N=N2)CNC3=CC4=C(C(=CN=C4C(=C3)Cl)C#N)NC5=CC(=C(C=C5)F)Cl [KIN001-266] + NC(=O)Nc1cc(-c2cccc(F)c2)sc1C(=O)N[C@H]1CCCNC1 [AZD7762] (partner 0.2 µM)
Procedure, shortened: as §1

[3] = compound: CCN1CCC(CC1)N2C=C(N=N2)CNC3=CC4=C(C(=CN=C4C(=C3)Cl)C#N)NC5=CC(=C(C=C5)F)Cl [KIN001-266] + Nc1ncn([C@H]2C[C@H](O)[C@@H](CO)O2)c(=O)n1 [Decitabine] (partner 2 µM)
Procedure, shortened: as §1

[4] = compound: CCN1CCC(CC1)N2C=C(N=N2)CNC3=CC4=C(C(=CN=C4C(=C3)Cl)C#N)NC5=CC(=C(C=C5)F)Cl [KIN001-266] + CC(C)C[C@H](NC(=O)[C@H](Cc1ccccc1)NC(=O)c1cnccn1)B(O)O [Bortezomib] (partner 0.002 µM)
Procedure, shortened: as §1

Row | Cell Line | relative viability ([1]; first compound 0.08 µM) | relative viability ([1]; first compound 0.253 µM) | relative viability ([1]; first compound 0.8 µM) | relative viability ([1]; first compound 2.53 µM) | relative viability ([1]; first compound 8 µM) | relative viability ([2]; first compound 0.08 µM) | relative viability ([2]; first compound 0.253 µM) | relative viability ([2]; first compound 0.8 µM) | relative viability ([2]; first compound 2.53 µM) | relative viability ([2]; first compound 8 µM) | relative viability ([3]; first compound 0.08 µM) | relative viability ([3]; first compound 0.253 µM) | relative viability ([3]; first compound 0.8 µM) | relative viability ([3]; first compound 2.53 µM) | relative viability ([3]; first compound 8 µM) | relative viability ([4]; first compound 0.08 µM) | relative viability ([4]; first compound 0.253 µM) | relative viability ([4]; first compound 0.8 µM) | relative viability ([4]; first compound 2.53 µM) | relative viability ([4]; first compound 8 µM)
1 | NCI-H1975 | 0.821 | 0.776 | 0.762 | 0.699 | 0.505 | 0.733 | 0.689 | 0.776 | 0.756 | 0.678 | 0.391 | 0.373 | 0.377 | 0.404 | 0.39 | 0.373 | 0.462 | 0.404 | 0.336 | 0.336
2 | HCC-366 | 0.156 | 0.286 | 0.0999 | 0.127 | 0.111 | 0.552 | 0.361 | 0.175 | 0.26 | 0.175 | 0.359 | 0.362 | 0.221 | 0.346 | 0.317 | 1.04 | 1.06 | 0.996 | 0.998 | 1.01
3 | HOP-62 | 0.414 | 0.381 | 0.384 | 0.328 | 0.319 | 0.583 | 0.671 | 1.03 | 0.729 | 0.447 | 0.224 | 0.215 | 0.287 | 0.204 | 0.217 | 0.563 | 0.565 | 0.575 | 0.779 | 1.07
4 | LU99A | 0.282 | 0.29 | 0.259 | 0.21 | 0.191 | 0.367 | 0.384 | 0.299 | 0.257 | 0.272 | 0.976 | 1.01 | 0.9 | 0.613 | 0.607 | 1.31 | 1.17 | 1.11 | 1.02 | 0.982
5 | NCI-H647 | 0.277 | 0.213 | 0.265 | 0.352 | 0.156 | 0.432 | 0.366 | 0.568 | 0.431 | 0.434 | 0.4 | 0.385 | 0.344 | 0.357 | 0.336 | 1 | 1.03 | 1.14 | 1.07 | 0.935
6 | A-427 | 0.24 | 0.21 | 0.178 | 0.186 | 0.181 | 0.722 | 0.697 | 0.761 | 0.644 | 0.599 | 0.616 | 0.566 | 0.521 | 0.508 | 0.535 | 1.06 | 1 | 0.955 | 0.982 | 0.817
7 | NCI-H441 | 0.75 | 0.737 | 0.557 | 0.56 | 0.261 | 0.941 | 1.2 | 1.11 | 1.07 | 1.19 | 0.284 | 0.205 | 0.242 | 0.211 | 0.279 | 0.603 | 0.811 | 0.478 | 0.457 | 0.554
8 | NCI-H2126 | 0.8 | 0.857 | 0.85 | 0.84 | 0.78 | 1.03 | 1.02 | 1 | 0.814 | 1.05 | 0.625 | 0.56 | 0.647 | 0.572 | 0.552 | 1.16 | 1.12 | 1.15 | 1.13 | 1.14
9 | HCC-44 | 0.886 | 0.917 | 0.976 | 0.987 | 0.865 | 1.04 | 1.01 | 0.989 | 0.969 | 1.05 | 0.977 | 0.964 | 1.01 | 0.847 | 0.99 | 0.944 | 0.867 | 0.815 | 0.852 | 0.864
10 | NCI-H460 | 0.553 | 0.423 | 0.333 | 0.54 | 0.121 | 0.543 | 0.679 | 0.681 | 0.554 | 0.524 | 0.483 | 0.477 | 0.475 | 0.433 | 0.438 | 1.01 | 1.18 | 1.16 | 0.988 | 1.06
11 | NCI-H322M | 0.451 | 0.554 | 0.513 | 0.433 | 0.458 | 0.63 | 0.64 | 0.612 | 0.451 | 0.544 | 0.733 | 0.745 | 0.74 | 0.648 | 0.672 | 1.16 | 1.43 | 1.34 | 1.23 | 1.18
12 | EKVX | 0.319 | 0.376 | 0.374 | 0.392 | 0.409 | 0.706 | 0.824 | 0.728 | 0.667 | 0.657 | 0.364 | 0.422 | 0.368 | 0.364 | 0.358 | 1.12 | 1 | 1.01 | 1.06 | 1.01
13 | NCI-H1734 | 0.256 | 0.295 | 0.279 | 0.232 | 0.243 | 0.566 | 0.635 | 0.438 | 0.631 | 0.461 | 0.513 | 0.512 | 0.421 | 0.48 | 0.433 | 1.07 | 0.842 | 0.822 | 0.805 | 0.768
14 | ABC-1 | 0.156 | 0.227 | 0.199 | 0.166 | 0.204 | 0.991 | 0.856 | 0.745 | 0.761 | 0.837 | 1.19 | 1.18 | 1.07 | 1.09 | 0.855 | 0.269 | 0.344 | 0.346 | 0.288 | 0.274
15 | EPLC-272H | 0.258 | 0.377 | 0.383 | 0.244 | 0.208 | 0.304 | 0.212 | 0.191 | 0.185 | 0.371 | 0.382 | 0.404 | 0.338 | 0.344 | 0.319 | 1.19 | 0.949 | 0.751 | 0.839 | 0.605
